# Results reported in patent US8999890B2, “Signaling compositions, methods, and systems for effecting plant burndown and herbicide enhancement” (KamTec, priority 2013, dated 2015).
# “And” between values parts separate entries of the source, which are not always exact repeats. Identical values can stand only once.
# Legend:
# Type in all cases: in vivo
# [1] = test system: ‘M-202’ medium-grain rice (Oryza sativa L.); assay: Rice seed soaking treatment with NaCl irrigation (Example I)
# Description: In another preferred embodiment of the present invention, seeds are soaked in prepared bio-regulator solutions for a period of three hours. Rice seeds were selected from ‘M-202’ medium-grain rice (Oryza sativa L.), (Reg. no 72) PI494105 type grains; this selection was meant to represent a typical California rice seed, and was not meant to be limiting. The bio-regulator solutions are prepared using 5 ppm BMTA solution with 0.05% v/v Kinetic® made by Helena Chemical Company. The solution was drained and the seeds planted in starter plastic containers with potting soil. After germination and having grown to 4 inches in height, the plants were transplanted into 6 inch diameter plastic containers. Two sets of three pots each were set up for this study; one set for the test group and one set for the control group. Both the control and test studies were irrigated with 1500 ppm NaCl solution from time of planting until the study was completed. The purpose of the NaCl irrigation was to determine the effect of the bio-regulator treatment in regards to salt tolerances.
# [2] = test system: sunflower, Melody variety; assay: Sunflower seed soaking, field plots (Example XI); conditions: for % Moist: control 12.53; for Wt at 6% Moist: control 60.74; for Wt. at 6 % Moist: normalized to 6% seed moisture content
# Description: In this preferred embodiment of the present invention, sunflower seeds were selected from the Melody variety and were soaked for three hours in solutions containing 0.05% Tween 20 and BMTA or BMPA, at a concentration of 3 ppm. Another group of seeds of the same variety was soaked in a solution with only in 0.05% Tween 20 added (control). Following soaking, seeds were desiccated to storage moisture contents and BMTA, BMPA and control seeds were sown in three twenty-five foot plots (Reps) each on May 21 (plots were arranged in a randomized block design). On September 16, sunflower heads were harvested, with a harvest of around 20 heads per plot/Rep on average. The heads were hand-threshed to collect seeds. Moisture, count, and weight data was collected on seeds from each head.
# [3] = test system: geranium slips; assay: Treatment of geranium slips (Example III)
# Description: In this preferred embodiment of the present invention, according to common geranium cutting means, geraniums were slipped into 18 slips of similar length. In this example the slips had no flower buds. The slips were separated into four different sets: three slips each in three of the sets, and then nine slips in the final set. The slips are then treated with bio-regulator solutions formed from compositions from the different groups and water. In the first set, the slips were treated with BMVE solution; in the second set, the slips were treated with BMTA solution; in the third set, the slips were treated with BMIA in bromide solution; and, in the fourth set, the nine slips were treated with water.
# The treatment with bio-regulator solution preferably occurs in the initial planting of the geranium slips, but can also occur at any time from the forming of the geranium slips up to and including the transplanting of the slips. The treatment can occur after transplanting, but this is not the preferred method. […]
# The study associated with this embodiment is summarized in Table 3-A below, where Set 1 is the control group and Set 2 is the test group. […] The ratios for Table 3-C are calculated by totaling the heights grown by each slip in each set and comparing it to the control counterpart that was grown in similar environmental conditions, without the treatment of the bio-regulator solutions. […]
# [4] = test system: aphid infestation on cotton Bt plant; assay: Cotton Bt seed soaking, aphid infestation (Example VII)
# Description: In this preferred embodiment of the present invention, seeds were soaked for a period of 3 hours in the bio-regulator solution. Cotton Bt were selected and studied to determine if bio-regulator chemistry will enhance or influence the inserted Bt genes of the transgenic plant. The seeds were separated into two different sets on July 2. The first set, Set 1, was soaked in 5 ppm BMPA solution with 0.05% Kinetic®. The second set, Set 2, was soaked in water with 0.05% v/v Kinetic®. The solution was drained and the treated seeds planted in starter plastic trays. After germination and after the seedlings reached the height of four inches, the cotton Bt plants were transplanted into larger six-inch plastic containers. The cotton plants were placed outdoors for the duration of the study. The different sets of plants were regularly observed throughout this study.
# [5] = test system: ‘M-202’ type rice; assay: Rice seed soaking treatment, 24 hours (Example II); conditions: for Biomass / Height / Tillering: 24 hrs soak, tap water irrigation, vs Set 1 (water)
# Description: In this preferred embodiment of the present invention, seeds are soaked in prepared bio-regulator solutions for a period of 24 hours. Rice seeds were selected from the same ‘M-202’ type grains as in the previous study. The bio-regulator solutions were prepared using 5 ppm BMPA solution. The solution was drained and seeds planted in starter plastic containers filled with potting soil. After germination and plant growth reaching height of four inches, rice seedlings were transplanted from their greenhouse containers to six-inch diameter plastic containers and placed outdoor. Again, two sets of three pots for the control and test group were used.
# These studies were also carried out using an increased amount of BMPA. The amount was increased from 1 ppm to 5 ppm, and the results of the study were similar to the results outlined in the paragraph above.
# [6] = BMTA soln. 5 ppm, 3 hours seed soak, NaCl soln. irrigation, vs Set 1 (tap water)
# [7] = mean over the three Reps, control 65.47
# [8] = mean over the three Reps, control 1062
# [9] = mean over the three Reps, control 2676
# [10] = per Rep (plot), 3 ppm, three hours soak
# [11] = per Rep, estimate based on planting rate of 20,000 seeds/acre
Compound,% Moist ([2]; mean over the three Reps) [%],Wt at 6% Moist ([2]; mean over the three Reps),"Fresh Seed Wt. [2, 7] [g]","Seed Count [2, 8]","Yield @ 20,000 Plants/Acre [2, 9] [lbs]","% Moist (seed moisture content) [2, 10]","Fresh Seed Wt. [2, 10]","Seed Count [2, 10]","Yield @ 20,000 Plants/Acre [2, 11]",Wt. at 6 % Moist ([2]; per Rep),also measured
Cc1ccc(C(=O)OCCN(C)Cc2ccccc2)cc1 [BMTA],13.64,65.08,70.85,1108,2867,13.10% and 13.01% and 14.82%,77.35 gm and 73.58 gm and 61.64 gm,1226 and 1157 and 942,3147 lbs and 2989 lbs and 2464 lbs,71.43 and 67.86 and 55.94,"Observed growth from planting through completion of the study ([1]; 5 ppm BMTA, 1500 ppm NaCl irrigation): enhanced growth; Biomass [1, 6]: ~3 x Set 1; Height [1, 6]: Same; Tillering [1, 6]: ~3 x Set 1; % of Control ([3]; Day 11, total height vs water control slips): 186.49%; % of Control ([3]; Day 27, total height vs water control slips): 162.26%"
CN(CCOC(=O)COc1ccccc1)Cc1ccccc1 [BMPA],13.27,64.29,69.75,1071,2832,13.52% and 13.93% and 12.37%,78.24 gm and 65.01 gm and 65.99 gm,1185 and 977 and 1052,3171 lbs and 2617 lbs and 2708 lbs,71.99 and 59.42 and 61.46,"Delay of the infestation of aphids on the cotton Bt plant ([4]; 5 ppm BMPA seed soak vs untreated): ≤ 19 days; Aphid infestation, Treated ([4]; 47 days after planting, 5 ppm BMPA, 3 hrs seed soak, control L-Aphid): No Aphid; Aphid infestation, Treated ([4]; 55 days after planting, control H-Aphid): No Aphid; Aphid infestation, Treated ([4]; 57 days after planting, control H-Aphid): L-Aphid; Aphid infestation, Treated ([4]; 74 days after planting, control Stressed): M-Aphid; Observed growth from planting through completion of the study ([5]; 5 ppm BMPA, 24 hours soak): enhanced growth; Biomass ([5]; BMPA 1 ppm): ~4 x Set 1; Height ([5]; BMPA 1 ppm): ~1.2 x Set 1; Tillering ([5]; BMPA 1 ppm): ~4 x Set 1; Biomass ([5]; BMPA 5 ppm): ~4 x Set 1; Height ([5]; BMPA 5 ppm): ~1.2 x Set 1; Tillering ([5]; BMPA 5 ppm): ~4 x Set 1"
